target: USP30 (Homo sapiens (Human), UniProt Q70CQ3); assay: USP30 biochemical IC50 assay; settings: fluorescence polarisation, TAMRA labelled peptide linked to ubiquitin substrate; enzyme and compound incubated 30 min at room temp; read after 2 h; read-out: IC50 range
Procedure: USP30 Biochemical IC50 Assay
Dilution plates were prepared at 21 times the final concentration (2100 μM for a final concentration of 100 μM) in 50% DMSO in a 96-well polypropylene V-bottom plate (Greiner #651201). A typical 8-point dilution series would be 100, 30, 10, 3, 1, 0.3, 0.1, 0.03 μM final. Reactions were performed in duplicate in black 384 well plates (small volume, Greiner 784076) in a final reaction volume of 21 μl. Either 1 μl of 50% DMSO or diluted compound was added to the plate. USP30 was diluted in reaction buffer (40 mM Tris, pH 7.5, 0.005% Tween 20, 0.5 mg/ml BSA, 5 mM beta-mercaptoethanol) to the equivalent of 0.05 μl/well and 10 μl of diluted USP30 was added to the compound. Enzyme and compound were incubated for 30 min at room temp. Reactions were initiated by the addition of 50 nM of TAMRA labelled peptide linked to ubiquitin via an iso-peptide bond as fluorescence polarisation substrate. Reactions were read immediately after addition of substrate and following a 2 h incubation at room temperature. Readings were performed on a Pherastar Plus (BMG Labtech). A Excitation 540 nm; A Emission 590 nm.

Chain of USP30 (Q70CQ3 57-517): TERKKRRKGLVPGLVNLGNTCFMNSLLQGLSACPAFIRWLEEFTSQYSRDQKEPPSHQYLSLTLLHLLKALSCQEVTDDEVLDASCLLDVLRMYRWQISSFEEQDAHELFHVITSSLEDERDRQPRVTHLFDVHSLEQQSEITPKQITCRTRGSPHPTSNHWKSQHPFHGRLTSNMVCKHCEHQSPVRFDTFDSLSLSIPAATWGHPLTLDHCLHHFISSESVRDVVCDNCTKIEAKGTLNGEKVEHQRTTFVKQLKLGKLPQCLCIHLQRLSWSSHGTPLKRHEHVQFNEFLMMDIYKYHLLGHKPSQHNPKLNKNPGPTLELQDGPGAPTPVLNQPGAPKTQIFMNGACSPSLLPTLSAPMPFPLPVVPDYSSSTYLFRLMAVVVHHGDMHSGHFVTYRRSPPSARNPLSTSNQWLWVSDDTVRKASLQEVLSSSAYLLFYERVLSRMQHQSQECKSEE

SMILES	IC50
N#CN1CCC(CC(=O)Nc2cccc(Cl)c2)C1 (stereo not shown) [Example 2, N-(3-Chlorophenyl)-2-(1-cyanopyrrolidin-3-yl)acetamide]	100 to 1000 nM
N#CN1CCC(CC(=O)Nc2ccc(C(F)(F)F)nc2)C1 (stereo not shown) [Example 4, 2-(1-Cyanopyrrolidin-3-yl)-N-(6-(trifluoromethyl)pyridin-3-yl)acetamide]	1000 to 10000 nM
N#CN1CCC(CC(=O)Nc2nc3ccc(Cl)cc3s2)C1 (stereo not shown) [Example 5, N-(6-Chlorobenzo[d]thiazol-2-yl)-2-(1-cyanopyrrolidin-3-yl)acetamide]	100 to 1000 nM
N#CN1CCC(CC(=O)Nc2cc(-c3ccccc3)no2)C1 (stereo not shown) [Example 6, 2-(1-Cyanopyrrolidin-3-yl)-N-(3-phenylisoxazol-5-yl)acetamide]	100 to 1000 nM
N#CN1CCC(CC(=O)Nc2nc3cc(Cl)ccc3o2)C1 (stereo not shown) [Example 8, N-(5-Chlorobenzo[d]oxazol-2-yl)-2-(1-cyanopyrrolidin-3-yl)acetamide]	100 to 1000 nM
N#CN1CCC(CC(=O)Nc2ncc(-c3ccccc3)s2)C1 (stereo not shown) [Example 10, 2-(1-Cyanopyrrolidin-3-yl)-N-(5-phenylthiazol-2-yl)acetamide]	100 to 1000 nM
N#CN1CCC(CC(=O)NCCc2ccccc2)C1 (stereo not shown) [Example 11, 2-(1-Cyanopyrrolidin-3-yl)-N-phenethylacetamide]	1000 to 10000 nM
Cc1noc(C)c1-c1ccc2nc(NC(=O)CC3CCN(C#N)C3)cn2c1 (stereo not shown) [Example 16, 2-(1-Cyanopyrrolidin-3-yl)-N-(6-(3,5-dimethylisoxazol-4-yl)imidazo[1,2-a]pyridin-2-yl)acetamide]	1000 to 10000 nM
Cc1ccc(NC(=O)C=C2CCN(C#N)C2)cc1Cl [Example 19, N-(3-Chloro-4-methylphenyl)-2-(1-cyanopyrrolidin-3-ylidene)acetamide]	100 to 1000 nM
N#CN1CCC(=CC(=O)Nc2ccc(Cl)c(C(F)(F)F)c2)C1 [Example 20, N-(4-Chloro-3-(trifluoromethyl)phenyl)-2-(1-cyanopyrrolidin-3-ylidene)acetamide]	100 to 1000 nM
N#CN1CCC(=CC(=O)Nc2ccc3ncsc3c2)C1 [Example 21, N-(Benzo[d]thiazol-6-yl)-2-(1-cyanopyrrolidin-3-ylidene)acetamide]	1000 to 10000 nM
N#CN1CCC(=CC(=O)Nc2ccc(Oc3ccccc3)cc2)C1 [Example 22, 2-(1-Cyanopyrrolidin-3-ylidene)-N-(4-phenoxyphenyl)acetamide]	10 to 100 nM
N#CN1CCC(=CC(=O)Nc2cnc3ccccc3c2)C1 [Example 23, 2-(1-Cyanopyrrolidin-3-ylidene)-N-(quinolin-3-yl)acetamide]	100 to 1000 nM
CN(Cc1ccc2ncccc2c1)C(=O)C=C1CCN(C#N)C1 [Example 24, 2-(1-Cyanopyrrolidin-3-ylidene)-N-methyl-N-(quinolin-6-ylmethyl)acetamide]	100 to 1000 nM
CN(Cc1cc(-c2ccccc2)on1)C(=O)C=C1CCN(C#N)C1 [Example 25, 2-(1-Cyanopyrrolidin-3-ylidene)-N-methyl-N-((5-phenylisoxazol-3-yl)methyl)acetamide]	100 to 1000 nM
CN(Cc1cccc(-c2ccncc2)c1)C(=O)C=C1CCN(C#N)C1 [Example 26, 2-(1-Cyanopyrrolidin-3-ylidene)-N-methyl-N-(3-(pyridin-4-yl)benzyl)acetamide]	100 to 1000 nM
CN(Cc1cc(-c2ccccc2)no1)C(=O)C=C1CCN(C#N)C1 [Example 27, 2-(1-Cyanopyrrolidin-3-ylidene)-N-methyl-N-((3-phenylisoxazol-5-yl)methyl)acetamide]	100 to 1000 nM
CN(Cc1ccc(N2CCCC2)cc1)C(=O)C=C1CCN(C#N)C1 [Example 28, 2-(1-Cyanopyrrolidin-3-ylidene)-N-methyl-N-(4-(pyrrolidin-1-yl)benzyl)acetamide]	100 to 1000 nM
CN(Cc1cc(-c2ccccc2)[nH]n1)C(=O)C=C1CCN(C#N)C1 [Example 30, 2-(1-Cyanopyrrolidin-3-ylidene)-N-methyl-N-((5-phenyl-1H-pyrazol-3-yl)methyl)acetamide]	100 to 1000 nM
N#CN1CCC(=CC(=O)NCc2cc(C(F)(F)F)ccc2F)C1 [Example 31, 2-(1-Cyanopyrrolidin-3-ylidene)-N-(2-fluoro-5-(trifluoromethyl)benzyl)acetamide]	1000 to 10000 nM
CN(C(=O)C=C1CCN(C#N)C1)c1nc2ccccc2s1 [Example 32, N-(Benzo[d]thiazol-2-yl)-2-(1-cyanopyrrolidin-3-ylidene)-N-methylacetamide]	100 to 1000 nM
CN(Cc1ccc(Cl)c(Cl)c1)C(=O)C=C1CCN(C#N)C1 [Example 33, 2-(1-Cyanopyrrolidin-3-ylidene)-N-(3,4-dichlorobenzyl)-N-methylacetamide]	100 to 1000 nM
N#CN1CC[C@H](CC(=O)Nc2cc(-c3cccc(Cl)c3)no2)C1 [Example 36, (R)—N-(3-(3-Chlorophenyl)isoxazol-5-yl)-2-(1-cyanopyrrolidin-3-yl)acetamide]	1 to 10 nM
N#CN1CCC(CC(=O)Nc2nnc(-c3ccccc3)s2)C1 (stereo not shown) [Example 41, 2-(1-cyanopyrrolidin-3-yl)-N-(5-phenyl-1,3,4-thiadiazol-2-yl)acetamide]	100 to 1000 nM
N#CN1CC[C@@H](CC(=O)Nc2cc(-c3cccc(Cl)c3)no2)C1 [Example 42, (S)-N-(3-(3-chlorophenyl)isoxazol-5-yl)-2-(1-cyanopyrrolidin-3-yl)acetamide]	10 to 100 nM

Continued, values first:

IC50	SMILES
1000 to 10000 nM	CC(C(=O)N1CC(c2ccc(C#N)cc2)C1)[C@@H]1CCN(C#N)C1 (single isomer, unassigned) [Example 61]
100 to 1000 nM	CC(C(=O)N1CC(c2ccc(C#N)cc2)C1)[C@@H]1CCN(C#N)C1 (single isomer, unassigned) [Example 62]
100 to 1000 nM	COc1ccc(C2CN(C(=O)CC3CCN(C#N)C3)C2)cc1 (stereo not shown) [Example 1, 3-(2-(3-(4-Methoxyphenyl)azetidin-1-yl)-2-oxoethyl)pyrrolidine-1-carbonitrile]
100 to 1000 nM	COc1ccc2nc(NC(=O)CC3CCN(C#N)C3)sc2c1 (stereo not shown) [Example 3, 2-(1-Cyanopyrrolidin-3-yl)-N-(6-methoxybenzo[d]thiazol-2-yl)acetamide]
100 to 1000 nM	N#CN1CCC(CC(=O)Nc2ccc(Cl)c(Cl)c2)C1 (stereo not shown) [Example 9, 2-(1-Cyanopyrrolidin-3-yl)-N-(3,4-dichlorophenyl)acetamide]
100 to 1000 nM	N#CN1CCC(CC(=O)N2CC(Oc3ccccc3)C2)C1 (stereo not shown) [Example 12, 3-(2-Oxo-2-(3-phenoxyazetidin-1-yl)ethyl)pyrrolidine-1-carbonitrile]
100 to 1000 nM	COc1cccc(C2CN(C(=O)CC3CCN(C#N)C3)C2)c1 (stereo not shown) [Example 13, 3-(2-(3-(3-Methoxyphenyl)azetidin-1-yl)-2-oxoethyl)pyrrolidine-1-carbonitrile]
1000 to 10000 nM	Cc1cc(C2CN(C(=O)CC3CCN(C#N)C3)C2)ccn1 (stereo not shown) [Example 15, 3-(2-(3-(2-Methylpyridin-4-yl)azetidin-1-yl)-2-oxoethyl)pyrrolidine-1-carbonitrile]
100 to 1000 nM	COc1ccc(C2CN(C(=O)C=C3CCN(C#N)C3)C2)cc1 [Example 17, 3-(2-(3-(4-Methoxyphenyl)azetidin-1-yl)-2-oxoethylidene)pyrrolidine-1-carbonitrile]
100 to 1000 nM	N#CN1CCC(=CC(=O)N2CC(c3ccccc3)C2)C1 [Example 18, 3-(2-Oxo-2-(3-phenylazetidin-1-yl)ethylidene)pyrrolidine-1-carbonitrile]
100 to 1000 nM	N#CN1CC[C@@H](CC(=O)Nc2cc(-c3ccc(Cl)cc3)no2)C1 [Example 34, (S)—N-(3-(4-Chlorophenyl)isoxazol-5-yl)-2-(1-cyanopyrrolidin-3-yl)acetamide]
100 to 1000 nM	N#CN1CC[C@H](CC(=O)Nc2cc(-c3ccc(Cl)cc3)no2)C1 [Example 35, (R)—N-(3-(4-Chlorophenyl)isoxazol-5-yl)-2-(1-cyanopyrrolidin-3-yl)acetamide]
100 to 1000 nM	COc1cccc(-c2cc(NC(=O)C[C@@H]3CCN(C#N)C3)on2)c1 [Example 37, (S)—N-(3-(3-Methoxyphenyl)isoxazol-5-yl)-2-(1-cyanopyrrolidin-3-yl)acetamide]
10 to 100 nM	COc1ccc(C2CN(C(=O)C[C@@H]3CCN(C#N)C3)C2)cc1 [Example 38, (S)-3-(2-(3-(4-Methoxyphenyl)azetidin-1-yl)-2-oxoethyl)pyrrolidine-1-carbonitrile]
10 to 100 nM	COc1ccc(C2CN(C(=O)C[C@@H]3CCN(C#N)C3)C2)cc1-c1ccn[nH]1 [Example 39, (S)-3-(2-(3-(4-Methoxy-3-(1H-pyrazol-5-yl)phenyl)azetidin-1-yl)-2-oxoethyl)pyrrolidine-1-carbonitrile]
10 to 100 nM	COc1ccc(C2CN(C(=O)C[C@@H]3CCN(C#N)C3)C2)cc1-c1ccnn1C [Example 40, (S)-3-(2-(3-(4-Methoxy-3-(1-methyl-1H-pyrazol-5-yl)phenyl)azetidin-1-yl)-2-oxoethyl)-pyrrolidine-1-carbonitrile]
10 to 100 nM	COc1cccc(-c2cc(NC(=O)C[C@H]3CCN(C#N)C3)on2)c1 [Example 43, (R)-2-(1-cyanopyrrolidin-3-yl)-N-(3-(3-methoxyphenyl)isoxazol-5-yl)acetamide]
1000 to 10000 nM	N#CN1CCC(CC(=O)Nc2cc3ccccn3n2)C1 (stereo not shown) [Example 44, 2-(1-cyanopyrrolidin-3-yl)-N-(pyrazolo[1,5-a]pyridin-2-yl)acetamide]

Reference: patent US11014912B2, “Cyanopyrrolidine derivatives with activity as inhibitors of USP30” (MISSION THERAPEUTICS LIMITED, priority 2016, dated 2021)
